Consider four compounds from US6294537A, “Compounds which are specific antagonists of the human NK3 receptor and their use as medicinal products and diagnostic tools” (Sanofi-Synthelabo, priority 1999, dated 2001).

Residues, ends and D or L forms follow the SMILES beside them. No end group written: not given here.

In one assay the target is T1, human NK3 receptor (Homo sapiens, UniProt P29371).
T1 construct: expressed in transfected cells; host or cells: CHO cells
T1 sequence (P29371 1-465): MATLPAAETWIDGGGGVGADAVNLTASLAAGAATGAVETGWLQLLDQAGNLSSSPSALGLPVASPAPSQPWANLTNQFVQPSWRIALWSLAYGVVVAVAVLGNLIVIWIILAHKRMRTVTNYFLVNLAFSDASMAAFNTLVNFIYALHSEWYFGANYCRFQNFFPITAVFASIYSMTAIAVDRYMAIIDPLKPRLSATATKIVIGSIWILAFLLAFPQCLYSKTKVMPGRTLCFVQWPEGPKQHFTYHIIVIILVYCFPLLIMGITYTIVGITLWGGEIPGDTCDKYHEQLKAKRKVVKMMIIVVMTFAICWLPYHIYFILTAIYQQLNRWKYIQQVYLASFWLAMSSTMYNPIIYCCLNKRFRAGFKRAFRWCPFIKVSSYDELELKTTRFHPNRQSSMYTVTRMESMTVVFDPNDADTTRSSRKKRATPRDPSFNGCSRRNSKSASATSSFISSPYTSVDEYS
Put plainly: Binding of [125I]His[MePhe7]NKB to cloned human NK3 receptors expressed by CHO cells. The note with it: for Ki: cloned human NK3 receptors expressed by CHO cells, read-out: inhibition constant Ki, human NK3 receptor; for selectivity / specificity for the human NK3 receptor: from Ki at human NK3 versus rat NK2/NK1 receptors. The method, then: (§1) The affinity of the compounds of formula (I') for the tachykinin receptors was evaluated in vitro by several biochemical assays using radioligands:
(§2) 3) The binding of [^125 I]His[MePhe^7 ]NKB to the NK3 receptors of rat cerebral cortex, of guinea pig cerebral cortex and of gerbil cerebral cortex as well as to the cloned human NK3 receptors expressed by CHO cells (Buell et al., FEBS Letters, 1992, 299, 90-95).
(§3) The assays were carried out according to X. Emonds-Alt et al. (Eur. J. Pharmacol., 1993, 250, 403-413).

Assay [1] concerns the target T2, NK2 receptor of rat duodenum (Rattus norvegicus, UniProt P16610).
T2 construct: NK2 receptors of rat duodenum; from tissue; host or cells: rat duodenum
T2 sequence (P16610 1-390): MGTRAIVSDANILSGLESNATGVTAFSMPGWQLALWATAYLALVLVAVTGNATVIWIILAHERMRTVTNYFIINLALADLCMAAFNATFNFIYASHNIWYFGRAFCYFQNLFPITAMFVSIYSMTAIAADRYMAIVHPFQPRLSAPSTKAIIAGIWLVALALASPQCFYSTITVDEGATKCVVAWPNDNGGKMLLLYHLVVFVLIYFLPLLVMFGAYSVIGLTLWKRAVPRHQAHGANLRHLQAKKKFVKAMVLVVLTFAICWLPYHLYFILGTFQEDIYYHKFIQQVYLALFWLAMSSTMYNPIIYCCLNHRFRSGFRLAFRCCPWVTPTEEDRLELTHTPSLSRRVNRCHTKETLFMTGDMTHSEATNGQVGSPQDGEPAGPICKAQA
Put plainly: Binding of [125I]His-NKA to NK2 receptors of rat duodenum. Conditions: read-out: inhibition constant Ki, rat duodenum NK2 receptor. The method, then:
as §1
2) The binding of [^125 I]His-NKA to the NK2 receptors of rat duodenum or of guinea pig ileum.
as §3

Assay [2] concerns the target T3, NK1 receptors of rat cortex (Rattus norvegicus, UniProt P14600).
T3 construct: NK1 receptors of rat cortex; from tissue; host or cells: rat cortex
The assay can be described thus: Binding of [125I]BH-SP to NK1 receptors of rat cortex. Conditions: read-out: inhibition constant Ki, rat cortex NK1 receptor. The method, then: as §1
1) The binding of [^125 I]BH-SP (substance P labeled with iodine 125 with the aid of the Bolton-Hunter reagent) to the NK1 receptors of rat cortex, of guinea pig ileum and of human lymphoblastic cells.
as §3

For assay [3], the target named is T4, NK3 receptors of rat cerebral cortex (Rattus norvegicus, UniProt P16177).
T4 construct: NK3 receptors of rat cerebral cortex; from tissue; host or cells: rat cerebral cortex
T4 sequence (P16177 1-452): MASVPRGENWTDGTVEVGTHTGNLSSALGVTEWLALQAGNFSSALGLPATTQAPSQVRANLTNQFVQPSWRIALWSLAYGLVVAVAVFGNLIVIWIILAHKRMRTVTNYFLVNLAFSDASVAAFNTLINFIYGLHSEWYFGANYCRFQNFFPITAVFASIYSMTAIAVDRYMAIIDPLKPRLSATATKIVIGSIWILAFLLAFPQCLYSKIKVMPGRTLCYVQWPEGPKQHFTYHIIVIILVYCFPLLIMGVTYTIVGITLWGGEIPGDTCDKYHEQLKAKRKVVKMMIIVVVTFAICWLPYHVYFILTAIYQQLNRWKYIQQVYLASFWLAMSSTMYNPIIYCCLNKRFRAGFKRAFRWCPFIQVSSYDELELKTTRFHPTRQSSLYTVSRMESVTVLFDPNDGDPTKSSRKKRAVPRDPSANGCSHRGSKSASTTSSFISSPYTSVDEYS
The assay can be described thus: Binding of [125I]His[MePhe7]NKB to NK3 receptors of rat cerebral cortex. Conditions: read-out: inhibition constant Ki, rat NK3 receptor. As to the method: as §1, §2, §3

In assay [4] the target is rat NK3 receptor. The note with it: Patent Application EP 512901; read-out: Ki, antagonizes the binding of eledoisin; cited from earlier work.
Assay [5] relates to rat NK3 receptor. The note with it: literature, J. Autonomic Pharmacol. 1993; cited from earlier work.
Assay [6] has as its system NK3 receptor. Put plainly: Rotating behavior induced in gerbils by intrastriatal senktide. The format is in vivo. Conditions: gerbil; unilateral application in the striatum. The method, then:
(§4) The compounds according to the present invention were also evaluated in vivo on two animal models.

The test system of assay [7] is NK3 receptor. The assay can be described thus: Hypertension induced in guinea pigs by intravenous or intracerebroventricular senktide. The format is in vivo. Conditions: guinea pig; intravenous or intracerebroventricular injection. As to the method:
as §4

T3 sequence (P14600 whole entry): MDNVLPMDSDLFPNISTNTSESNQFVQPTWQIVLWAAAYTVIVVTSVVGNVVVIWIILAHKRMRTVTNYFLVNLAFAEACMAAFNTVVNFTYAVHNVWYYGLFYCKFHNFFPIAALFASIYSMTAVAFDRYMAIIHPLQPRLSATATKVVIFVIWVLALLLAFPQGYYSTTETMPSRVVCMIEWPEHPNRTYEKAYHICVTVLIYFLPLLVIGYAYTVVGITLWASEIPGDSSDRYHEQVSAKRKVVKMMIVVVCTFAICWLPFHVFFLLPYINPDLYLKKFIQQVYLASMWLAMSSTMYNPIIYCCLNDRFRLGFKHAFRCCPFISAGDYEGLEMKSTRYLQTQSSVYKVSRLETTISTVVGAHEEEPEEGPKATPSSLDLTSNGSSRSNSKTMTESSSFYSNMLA

For the compound `CN(CC(CCCN1CCC(O)(c2ccccc2)CC1)c1ccc(Cl)c(Cl)c1)C(=O)c1ccccc1.Cl` (stereo not drawn) [Example 1, N-Methyl-N-[2-(3,4-dichlorophenyl)-5-(4-hydroxy-4-phenylpiperid-1-yl)pentyl]benzamide hydrochloride], the figures for the Ki (at human NK3 receptor; in assay [1]; in assay [2]) were 5 nM, 500 nM and 500 nM, respectively. Besides, the “selectivity / specificity for the human NK3 receptor” value on human NK3 receptor was “high specificity”.
In the case of `Cl.O=C1CCC(CCN2CCC(O)(c3ccccc3)CC2)(c2ccc(Cl)c(Cl)c2)CN1Cc1ccccc1` (stereo not drawn) [compound A, 5-[2-(4-hydroxy-4-phenylpiperid-1-yl)ethyl]-5-(3,4-dichlorophenyl)-1-benzylpiperid-2-one hydrochloride], the Ki on human NK3 receptor is 1 nM; in assay [3], 100 nM; in assay [1] it was 0.1 nM; on rat NK3 receptor [4] it was 200 nM. Further, the “selectivity / specificity for the human NK3 receptor” value at human NK3 receptor is recorded as “not selective”.
For “[Trp^7, Ala^8 ]NKA: A peptide antagonist, weakly specific for rat NK3 receptor (HKTDSFWALM; ends and bridges not checked; UniProt P20366 98-107, looked up, variant V7W G8A)”, in the assay with rat NK3 receptor [5], the “specificity for rat NK3 receptor” value is listed as “weakly specific”.
Consider `CSCC[C@H](NC(=O)[C@H](CC(C)C)NC(=O)CNC(=O)[C@H](Cc1ccccc1)N(C)C(=O)[C@H](Cc1ccccc1)NC(=O)[C@H](CC(=O)O)NC(=O)CCC(=O)O)C(N)=O` [senktide] (HELM PEPTIDE1{[O=C(O)CCC(=O)[*:2]].D.F.[meF].G.L.M.[am]}$$$$V2.0), for which the “contralateral rotations induced by senktide” value with NK3 receptor [6] is “strong contralateral rotations”. The “hypertension induced by senktide” value in the assay on NK3 receptor [7] is on record as “induces a hypertension”.
